For 21 compounds, IC50 results are on record in patent US20250144094A1 (Erasca, Inc., priority 2021, published 2025).

One may read the IC50 as the concentration needed to halve the response being measured.

In this experiment the target is Recombinant human ULK1 (1-649) (Homo sapiens (Human), UniProt O75385). Nature of the experiment: ULK1 ADP Glo kinase activity assay, new method (ULKtide peptide substrate). Conditions: 25° C., 40 minutes, read-out: ULK1 biochemical IC50. Put shortly:
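Kinase activity was read as ADP production (ADP-Glo, luminescence 30 min after detection reagent) following a 40-min, 25 °C reaction of Sf9-expressed GST-ULK1 (1-649) with ULKtide substrate and ATP. Compounds ran as 12-point series starting at 10 μM; four-parameter curve fitting versus DMSO wells gave IC50.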
(ADP-Glo first removes unused ATP, then detects ADP through luciferase.)

Recombinant human ULK1 (1-649), sequence (O75385 1-649): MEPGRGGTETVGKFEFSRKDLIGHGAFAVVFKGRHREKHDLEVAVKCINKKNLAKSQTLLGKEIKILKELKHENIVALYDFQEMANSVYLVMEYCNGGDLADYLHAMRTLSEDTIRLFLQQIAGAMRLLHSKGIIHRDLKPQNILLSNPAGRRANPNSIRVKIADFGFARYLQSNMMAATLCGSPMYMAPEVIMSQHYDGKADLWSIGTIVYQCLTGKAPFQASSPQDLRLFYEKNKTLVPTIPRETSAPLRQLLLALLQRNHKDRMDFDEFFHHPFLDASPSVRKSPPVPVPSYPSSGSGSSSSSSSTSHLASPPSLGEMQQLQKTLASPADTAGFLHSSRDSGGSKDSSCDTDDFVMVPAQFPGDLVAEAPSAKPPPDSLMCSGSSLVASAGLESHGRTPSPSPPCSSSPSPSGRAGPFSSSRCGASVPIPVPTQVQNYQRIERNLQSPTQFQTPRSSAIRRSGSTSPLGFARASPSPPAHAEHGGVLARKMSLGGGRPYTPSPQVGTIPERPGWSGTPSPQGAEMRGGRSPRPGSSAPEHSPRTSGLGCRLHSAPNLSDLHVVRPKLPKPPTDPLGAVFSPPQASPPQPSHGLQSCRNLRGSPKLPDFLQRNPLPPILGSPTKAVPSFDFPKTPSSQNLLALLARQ

On to `O=C1c2sc(-c3nc(Nc4ccc(N5CCN[C@@H](CO)C5)cc4C4CC4)ncc3C(F)(F)F)cc2S(=O)(=O)CCN1C1CC1` [Example 345, (R)-4-cyclopropyl-7-(2-((2-cyclopropyl-4-(3-(hydroxymethyl)piperazin-1-yl)phenyl)amino)-5-(trifluoromethyl)pyrimidin-4-yl)-3,4-dihydrothieno[2,3-f][1,4]thiazepin-5(2H)-one 1,1-dioxide], for which the IC50 was at most 5 nM. As to `CCc1cc(N2C[C@@H]3C[C@H]2CN3C)ccc1Nc1ncc(C(F)(F)F)c(-c2cc3c(s2)C(=O)N(C2COC2)CCS3(=O)=O)n1` [Example 346, 7-(2-((2-Ethyl-4-((1S,4S)-5-methyl-2,5-diazabicyclo[2.2.1]heptan-2-yl)phenyl)amino)-5-(trifluoromethyl)pyrimidin-4-yl)-4-(oxetan-3-yl)-3,4-dihydrothieno[2,3-f][1,4]thiazepin-5(2H)-one 1,1-dioxide], the concentration for half-maximal inhibition (IC50) fell in the range of 5 to 10 nM.

Regarding `CCc1cc(N2C[C@H]3C[C@@H]2CN3C)ccc1Nc1ncc(C(F)(F)F)c(-c2cc3c(s2)C(=O)N(C2COC2)CCS3(=O)=O)n1` [Example 347, 7-(2-((2-ethyl-4-((1R,4R)-5-methyl-2,5-diazabicyclo[2.2.1]heptan-2-yl)phenyl)amino)-5-(trifluoromethyl)pyrimidin-4-yl)-4-(oxetan-3-yl)-3,4-dihydrothieno[2,3-f][1,4]thiazepin-5(2H)-one 1,1-dioxide], the IC50 is at most 5 nM.

On to `CCc1cc(N2C[C@H]3CC[C@@H](C2)N3C)ccc1Nc1ncc(C(F)(F)F)c(-c2cc3c(s2)C(=O)N(C2COC2)CCS3(=O)=O)n1` [Example 348, 7-(2-((2-ethyl-4-((1R,5S)-8-methyl-3,8-diazabicyclo[3.2.1]octan-3-yl)phenyl)amino)-5-(trifluoromethyl)pyrimidin-4-yl)-4-(oxetan-3-yl)-3,4-dihydrothieno[2,3-f][1,4]thiazepin-5(2H)-one 1,1-dioxide], for which the IC50 was at most 5 nM. For `CN1C2CC1CN(c1ccc(Nc3ncc(C(F)(F)F)c(-c4cc5c(s4)C(=O)N(C4COC4)CCS5(=O)=O)n3)c(C3CC3)c1)C2` [Example 349, 7-(2-((2-cyclopropyl-4-(6-methyl-3,6-diazabicyclo[3.1.1]heptan-3-yl)phenyl)amino)-5-(trifluoromethyl)pyrimidin-4-yl)-4-(oxetan-3-yl)-3,4-dihydrothieno[2,3-f][1,4]thiazepin-5(2H)-one 1,1-dioxide], the concentration for half-maximal inhibition (IC50) was at most 5 nM. `C[C@@H]1CN(c2ccc(Nc3ncc(C(F)(F)F)c(-c4cc5c(s4)C(=O)N(C4COC4)CCS5(=O)=O)n3)c(C3CC3)c2)C[C@H](C)N1` [Example 350, 7-(2-((2-cyclopropyl-4-((3S,5R)-3,5-dimethylpiperazin-1-yl)phenyl)amino)-5-(trifluoromethyl)pyrimidin-4-yl)-4-(oxetan-3-yl)-3,4-dihydrothieno[2,3-f][1,4]thiazepin-5(2H)-one 1,1-dioxide]: the IC50 is at most 5 nM. On to `C[C@H]1CN(c2ccc(Nc3ncc(C(F)(F)F)c(-c4cc5c(s4)C(=O)N(C4COC4)CCS5(=O)=O)n3)c(C3CC3)c2)C[C@H](C)N1C` [Example 351, 7-(2-((2-cyclopropyl-4-((3S,5S)-3,4,5-trimethylpiperazin-1-yl)phenyl)amino)-5-(trifluoromethyl)pyrimidin-4-yl)-4-(oxetan-3-yl)-3,4-dihydrothieno[2,3-f][1,4]thiazepin-5(2H)-one 1,1-dioxide], for which the half-inhibitory concentration (IC50) lay in the range of 5 to 10 nM. Consider `CN1CCN(c2ccc(Nc3ncc(C(F)(F)F)c(-c4cc5c(s4)C(=O)N(C4CC4)CCS5(=O)=O)n3)c(C3CC3)c2)C[C@@H]1CO` [Example 352, (R)-4-cyclopropyl-7-(2-((2-cyclopropyl-4-(3-(hydroxymethyl)-4-methylpiperazin-1-yl)phenyl)amino)-5-(trifluoromethyl)pyrimidin-4-yl)-3,4-dihydrothieno[2,3-f][1,4]thiazepin-5(2H)-one 1,1-dioxide], for which the IC50 was at most 5 nM. Take `CCc1cc(N2CCN[C@@H](C)C2)ccc1Nc1ncc(C(F)(F)F)c(-c2cc3c(s2)C(=O)N(C2CC2)CCS3(=O)=O)n1` [Example 353, (S)-4-cyclopropyl-7-(2-((2-ethyl-4-(3-methylpiperazin-1-yl)phenyl)amino)-5-(trifluoromethyl)pyrimidin-4-yl)-3,4-dihydrothieno[2,3-f][1,4]thiazepin-5(2H)-one 1,1-dioxide]: the IC50 was at most 5 nM. `CCc1cc(N2CCN[C@@H](C)C2)ccc1Nc1ncc(C(F)(F)F)c(-c2cc3c(s2)C(=O)N(C2COC2)CCS3(=O)=O)n1` [Example 354, (S)-7-(2-((2-ethyl-4-(3-methylpiperazin-1-yl)phenyl)amino)-5-(trifluoromethyl)pyrimidin-4-yl)-4-(oxetan-3-yl)-3,4-dihydrothieno[2,3-f][1,4]thiazepin-5(2H)-one 1,1-dioxide]: the IC50 is at most 5 nM. As to `CCc1cc(N2CCN[C@@H](CO)C2)ccc1Nc1ncc(C(F)(F)F)c(-c2cc3c(s2)C(=O)N(C2COC2)CCS3(=O)=O)n1` [Example 355, (R)-7-(2-((2-ethyl-4-(3-(hydroxymethyl)piperazin-1-yl)phenyl)amino)-5-(trifluoromethyl)pyrimidin-4-yl)-4-(oxetan-3-yl)-3,4-dihydrothieno[2,3-f][1,4]thiazepin-5(2H)-one 1,1-dioxide], the IC50 was at most 5 nM. Under `CCc1cc(N2C[C@H](C)N[C@@H](C)C2)ccc1Nc1ncc(C(F)(F)F)c(-c2cc3c(s2)C(=O)N(C2CC2)CCS3(=O)=O)n1` [Example 356, 4-cyclopropyl-7-(2-((4-((3S,5S)-3,5-dimethylpiperazin-1-yl)-2-ethylphenyl)amino)-5-(trifluoromethyl)pyrimidin-4-yl)-3,4-dihydrothieno[2,3-f][1,4]thiazepin-5(2H)-one 1,1-dioxide] stands at most 5 nM.

`C[C@@H]1CN(c2ccc(Nc3ncc(C(F)(F)F)c(-c4cc5c(s4)C(=O)N(C4COC4)CCS5(=O)=O)n3)c(C3CC3)c2)C[C@H](C)N1C` [Example 357, 7-(2-((2-cyclopropyl-4-((3S,5R)-3,4,5-trimethylpiperazin-1-yl)phenyl)amino)-5-(trifluoromethyl)pyrimidin-4-yl)-4-(oxetan-3-yl)-3,4-dihydrothieno[2,3-f][1,4]thiazepin-5(2H)-one 1,1-dioxide]: the half-maximal inhibitory concentration (IC50) is at most 5 nM. With `O=C1c2sc(-c3nc(Nc4ccc(N5CCN[C@@H](CO)C5)cc4C4CC4)ncc3C(F)(F)F)cc2S(=O)(=O)CCN1C1COC1` [Example 358, (R)-7-(2-((2-cyclopropyl-4-(3-(hydroxymethyl)piperazin-1-yl)phenyl)amino)-5-(trifluoromethyl)pyrimidin-4-yl)-4-(oxetan-3-yl)-3,4-dihydrothieno[2,3-f][1,4]thiazepin-5(2H)-one 1,1-dioxide], the IC50 was at most 5 nM.

Turning to `CCc1cc(N2CCN[C@H](C)C2)ccc1Nc1ncc(C(F)(F)F)c(-c2cc3c(s2)C(=O)N(C2CC2)CCS3(=O)=O)n1` [Example 359, (R)-4-cyclopropyl-7-(2-((2-ethyl-4-(3-methylpiperazin-1-yl)phenyl)amino)-5-(trifluoromethyl)pyrimidin-4-yl)-3,4-dihydrothieno[2,3-f][1,4]thiazepin-5(2H)-one 1,1-dioxide], the IC50 is at most 5 nM. Regarding `CCc1cc(N2CCN(C)[C@H](C)C2)ccc1Nc1ncc(C(F)(F)F)c(-c2cc3c(s2)C(=O)N(C2CC2)CCS3(=O)=O)n1` [Example 360, (R)-4-cyclopropyl-7-(2-((4-(3,4-dimethylpiperazin-1-yl)-2-ethylphenyl)amino)-5-(trifluoromethyl)pyrimidin-4-yl)-3,4-dihydrothieno[2,3-f][1,4]thiazepin-5(2H)-one 1,1-dioxide], the IC50 was at most 5 nM.

In the case of `CCc1cc(N2CCN(C)[C@@H](C)C2)ccc1Nc1ncc(C(F)(F)F)c(-c2cc3c(s2)C(=O)N(C2CC2)CCS3(=O)=O)n1` [Example 361, (S)-4-cyclopropyl-7-(2-((4-(3,4-dimethylpiperazin-1-yl)-2-ethylphenyl)amino)-5-(trifluoromethyl)pyrimidin-4-yl)-3,4-dihydrothieno[2,3-f][1,4]thiazepin-5(2H)-one 1,1-dioxide], the half-maximal inhibitory concentration (IC50) was at most 5 nM.

For the compound `CCc1cc(N2CCN(C)[C@@H](C)C2)ccc1Nc1ncc(C(F)(F)F)c(-c2cc3c(s2)C(=O)N(C2COC2)CCS3(=O)=O)n1` [Example 362, (S)-7-(2-((4-(3,4-dimethylpiperazin-1-yl)-2-ethylphenyl)amino)-5-(trifluoromethyl)pyrimidin-4-yl)-4-(oxetan-3-yl)-3,4-dihydrothieno[2,3-f][1,4]thiazepin-5(2H)-one 1,1-dioxide], the IC50 was at most 5 nM.

As to `CCc1cc(N2C[C@H](C)N(C)[C@@H](C)C2)ccc1Nc1ncc(C(F)(F)F)c(-c2cc3c(s2)C(=O)N(C2CC2)CCS3(=O)=O)n1` [Example 363, 4-cyclopropyl-7-(2-((2-ethyl-4-((3S,5S)-3,4,5-trimethylpiperazin-1-yl)phenyl)amino)-5-(trifluoromethyl)pyrimidin-4-yl)-3,4-dihydrothieno[2,3-f][1,4]thiazepin-5(2H)-one 1,1-dioxide], the half-inhibitory concentration (IC50) was at most 5 nM. Turning to `CCc1cc(N2CCNCC2)ccc1Nc1ncc(C(F)(F)F)c(-c2cc3c(s2)C(=O)N(C2COC2)CCS3(=O)=O)n1` [Example 364, 7-(2-((2-ethyl-4-(piperazin-1-yl)phenyl)amino)-5-(trifluoromethyl)pyrimidin-4-yl)-4-(oxetan-3-yl)-3,4-dihydrothieno[2,3-f][1,4]thiazepin-5(2H)-one 1,1-dioxide], the half-inhibitory concentration (IC50) is at most 5 nM. Turning to `CCc1cc(N2C[C@@H](C)N[C@@H](C)C2)ccc1Nc1ncc(C(F)(F)F)c(-c2cc3c(s2)C(=O)N(C2CC2)CCS3(=O)=O)n1` [Example 366, 4-cyclopropyl-7-(2-((4-((3S,5R)-3,5-dimethylpiperazin-1-yl)-2-ethylphenyl)amino)-5-(trifluoromethyl)pyrimidin-4-yl)-3,4-dihydrothieno[2,3-f][1,4]thiazepin-5(2H)-one 1,1-dioxide], the IC50 is at most 5 nM.
